Patent US9295258B2, “Synergistic pesticidal compositions and related methods” (DOW AGROSCIENCES LLC, priority 2013, dated 2016)

What was measured:
[1] = tested on: Diamondback Moth, Plutella xylostella; assay: Diamondback moth percent control on treated cabbage leaf discs (track sprayer), synergy by Colby's equation; format: in vivo
Excerpt: (§1) The method described in Colby S. R., “Calculating Synergistic and Antagonistic Responses of Herbicide Combinations,” Weeds, 1967, 15, 20-22 was used to determine an existence of synergic effect between the ecdysone receptor agonist compound and the pesticide in the formulated pesticidal composition. In this method, the percent insect control of the formulated pesticidal composition as observed in the study was compared to the “expected” percent control (E) as calculated by equation (1) (hereinafter “Colby's equation”) below: […]
(§2) X is the percentage of control with the first pesticide at a given rate (p),
(§3) Y is the percentage of control with the second pesticide at a given rate (q), and
E is the expected control by the first and second pesticide at a rate of p+q.
Bioassays were performed for different active compounds. […] The “Colby's Expected Action” was calculated using Colby's equation as discussed previously.
(§4) Bioassays were performed for different active compounds. […] The “Colby's Expected Action” was calculated using Colby's equation as discussed previously. […]
as §4

[2] = tested on: Cotton Aphid, Aphis gossypii (Glover); assay: Cotton aphid percent control on treated cotton plants (track sprayer), synergy by Colby's equation; format: in vivo; conditions: cotton plants at cotyledon stage
Excerpt: as §1, §2, §3
E is the expected control by the first and second pesticide at a rate of p+q. […]
Cotton plants at cotyledon stage were treated with different active compounds using track sprayer. […] The percent control of the pesticidal composition against cotton aphid, Aphis gossypii (Glover), was determined as the “Observed” action, and compared to those obtained by using about 0.002 weight % of compound II, and using about 0.005 weight % of methoxyfenozide alone. The “Colby's Expected Action” was calculated using Colby's equation as discussed previously.

SMILES: CCN(C(=O)CCSCCC(F)(F)F)c1cn(-c2cccnc2)nc1Cl [Compound I, N-(3-chloro-1-(pyridin-3-yl)-1H-pyrazol-4-yl)-N-ethyl-3-((3,3,3-trifluoropropyl)thio)propanamide]
- Average % Control Five Days After Treatment ([1]; Compound I alone (1:0), average of 0.0025, 0.000625 and 0.0001531 weight %): 7.58%

SMILES: CCN(C(=O)CC[S+]([O-])CCC(F)(F)F)c1cn(-c2cccnc2)nc1Cl (stereo not shown) [Compound II, N-(3-chloro-1-(pyridin-3-yl)-1H-pyrazol-4-yl)-N-ethyl-3-((3,3,3-trifluoropropyl)sulfinyl)propanamide]
- % Control Three Days After Treatment ([2]; Compound II alone, dose rate 0.002 weight %): 28%

SMILES: COc1cccc(C(=O)NN(C(=O)c2cc(C)cc(C)c2)C(C)(C)C)c1C [Methoxyfenozide, 3-methoxy-2-methylbenzoic acid 2-(3,5-dimethylbenzoyl)-2-(1,1-dimethylethyl)hydrazide]
- Average % Control Five Days After Treatment ([1]; Methoxyfenozide alone (0:1), average of 0.02, 0.005, 0.00125 and 0.0003125 weight %): 15.9%
- % Control Three Days After Treatment ([2]; Methoxyfenozide alone, dose rate 0.005 weight %): 23%
